According to patent publication US20050058745A1, “Use of Labiatae herb preparations for extending the flavor shelf life of malt beverages” (priority 2003, published 2005):

Experiments:
[1] = Phenylacetaldehyde in headspace of aged beer; format: physicochemical; conditions: for Phenylacetaldehyde in the headspace of aged beer: 20 ppm (RA + CA: 10 ppm each); for effect on formation of phenylacetaldehyde and 3-methylbutanal: aged beer, 40° C.
Protocol: The highly hopped beer from example 2 was treated with solutions of carnosic acid in ethanol, rosmarinic acid in ethanol or a mixture of carnosic acid and rosmarinic acid in ethanol as done previously. […] The bottles were fobbed to exclude air and crowned. • 3. “20 ppm CA+air” in which bottles were opened and 20 ppm CA added as above. These bottles received two puffs of air in the remaining headspace from a 25 mL bulb. They were crowned without fobbing • 4. “20 ppm RA” in which bottles were opened and 20 ppm rosmarinic acid added from a 2% solution. The bottles were fobbed and crowned. • 5. “20 ppm RA+air” which was done as in No. 4, with 20 ppm RA added. These bottles received the two puffs of air and were crowned without fobbing. • 6. “10 ppm RA+10 ppm CA” in which bottles were opened and 10 ppm each of carnosic and rosmarinic acids were added from pure solutions (178 μL of 2% solution per 12 oz bottle). Bottles were fobbed and crowned. • 7. “10 ppm RA+10 ppm CA+air” in which 10 ppm each of RA and CA was added. This treatment received two puffs of air and was not fobbed before closing. • 8. “Control+air” in which bottles were opened, given two puffs of air and crowned without fobbing. • 9. “Control” in which bottles were opened, fobbed and crowned. Treatments 2 through 9 were stored in a 40° C. hot room. At various times, bottles were opened and samples analyzed for phenylacetaldehyde and 3-methylbutanal by the method of “[…], et al. The results are shown in Table 19.

[2] = Trained panel flavor evaluation, highly hopped aromatic beer, forced aging; conditions: 20 ppm
Protocol: Separate solutions containing 2% pure rosmarinic acid or pure carnosic acid were prepared by weighing out 500 mg of each compound into separate volumetric flasks and diluting to 25 mL with 100% EtOH. The beer used in this study was the freshest material available, being coded Nov 03 […]. It was purchased at a local market. Bottle additions were done as in Example 1. The following samples were prepared: The bottles were placed in a heated room at 40±1° C. in the dark for varying amounts of time. After the allotted aging time, the bottles of beer were transferred to a dark refrigerator and stored at approximately 2to 4° C. until they were analyzed (always within 48 hours). Additional bottles from the same code were kept unopened in 2° to 4° C. storage. These unopened samples from the same beer code were labeled “Fresh Control” used to provide fresh samples for the trained panel. At the appropriate times, a trained 8-member panel evaluated the beers. […] Three beers were evaluated at each session-Fresh Control, Aged No Addition, and Aged Beer with one of the Labiatae treatments. The overall preference rank, the character and intensity of the aroma, the levels of paper/cardboard aroma and flavor, sour or off flavors, hang and astringency and bitterness quality and intensity were evaluated.

[3] = Haze formation in aged beer (Haze Meter); format: physicochemical; conditions: for Haze: 20 ppm (RA + CA: 10 ppm each); for effect on rate of haze formation: aged beer exposed to air
Protocol: The highly hopped beer from example 2 was treated with solutions of carnosic acid in ethanol, rosmarinic acid in ethanol or a mixture of carnosic acid and rosmarinic acid in ethanol as done previously. The preparations were: • 1. “Fresh”, in which the beer remained unopened and was stored in the cold room at 2-4° C. • 2. “20 ppm CA” in which bottles were opened and 20 ppm carnosic acid was added from a 2% solution of pure CA ([…] of the 2% solution). The bottles were fobbed to exclude air and crowned. • 3. “20 ppm CA+air” in which bottles were opened and 20 ppm CA added as above. These bottles received two puffs of air in the remaining headspace from a 25 mL bulb. They were crowned without fobbing • 4. “20 ppm RA” in which bottles were opened and 20 ppm rosmarinic acid added from a 2% solution. The bottles were fobbed and crowned. • 5. “20 ppm RA+air” which was done as in No. 4, with 20 ppm RA added. These bottles received the two puffs of air and were crowned without fobbing. • 6. “10 ppm RA+10 ppm CA” in which bottles were opened and 10 ppm each of carnosic and rosmarinic acids were added from pure solutions (178 μL of 2% solution per 12 oz bottle). Bottles were fobbed and crowned. • 7. “10 ppm RA+10 ppm CA+air” in which 10 ppm each of RA and CA was added. This treatment received two puffs of air and was not fobbed before closing. • 8. “Control+air” in which bottles were opened, given two puffs of air and crowned without fobbing. • 9. “Control” in which bottles were opened, fobbed and crowned.
The samples prepared in Example 18 were analyzed for haze in the following manner. A clean, dry, clear flint bottle was marked with a permanent mark on the neck for aligning the bottle the same way for each measurement. The bottle was filled with distilled water to the bottom of the neck and aligned in a Haze Meter with the alignment mark facing forward (Haze Meter, Type UKM1d, Radiometer Copenhagen) to zero the instrument. The bottle was emptied and then filled with a degassed beer sample to be tested and the haze was recorded in ASBC Formazin units.

Compound | Phenylacetaldehyde in the headspace of aged beer ([1]; Day 0, 40° C., + air) | Phenylacetaldehyde in the headspace of aged beer ([1]; Day 0, 40° C., no air) | Phenylacetaldehyde in the headspace of aged beer ([1]; Day 3, 40° C., + air) | Phenylacetaldehyde in the headspace of aged beer ([1]; Day 3, 40° C., no air) | Phenylacetaldehyde in the headspace of aged beer ([1]; Day 7, 40° C., + air) | Phenylacetaldehyde in the headspace of aged beer ([1]; Day 7, 40° C., no air) | Phenylacetaldehyde in the headspace of aged beer ([1]; Day 14, 40° C., + air) | Phenylacetaldehyde in the headspace of aged beer ([1]; Day 14, 40° C., no air) | Phenylacetaldehyde in the headspace of aged beer ([1]; Day 21, 40° C., + air) | Phenylacetaldehyde in the headspace of aged beer ([1]; Day 21, 40° C., no air) | effect on formation of phenylacetaldehyde and 3-methylbutanal [1] | panelists' preference for treated sample over Aged No Addition sample ([2]; 1 week 40° C.) | Haze ([3]; Day 0, 40° C., + air) | Haze ([3]; Day 0, 40° C., no air) | Haze ([3]; Day 3, 40° C., + air) | Haze ([3]; Day 3, 40° C., no air) | Haze ([3]; Day 7, 40° C., + air) | Haze ([3]; Day 7, 40° C., no air) | Haze ([3]; Day 14, 40° C., + air) | Haze ([3]; Day 14, 40° C., no air) | other results
CC(C)c1cc2c(c(O)c1O)[C@@]1(C(=O)O)CCCC(C)(C)[C@@H]1CC2 [CA, carnosic acid] | 30.49 Parts per million | 32.76 Parts per million | 42.05 Parts per million | 46.34 Parts per million | 63.82 Parts per million | 57.39 Parts per million | 25.74 Parts per million | 24.75 Parts per million | 88.86 Parts per million | 52.94 Parts per million | dramatic effect in decreasing the formation of these off-flavor compounds | 8 of 8 panelists preferred | 40 ASBC Formazin Units | 40 ASBC Formazin Units | 45 ASBC Formazin Units | 30 ASBC Formazin Units | 50 ASBC Formazin Units | 35 ASBC Formazin Units | 80 ASBC Formazin Units | 45 ASBC Formazin Units | Haze ([3]; Day 21, 40° C., + air): 120 ASBC Formazin Units; Haze ([3]; Day 21, 40° C., no air): 75 ASBC Formazin Units; Haze ([3]; Day 35, 40° C., + air): 800 ASBC Formazin Units; Haze ([3]; Day 35, 40° C., no air): 110 ASBC Formazin Units; effect on rate of haze formation [3]: dramatic positive effect on reducing the rate of haze formation
O=C(/C=C/c1ccc(O)c(O)c1)O[C@H](Cc1ccc(O)c(O)c1)C(=O)O [RA, rosmarinic acid] | 50.16 Parts per million | 43.6 Parts per million | 48.83 Parts per million | 45.83 Parts per million | 66.68 Parts per million | 46.01 Parts per million | 55.65 Parts per million | 52.71 Parts per million | 68.89 Parts per million | 52.14 Parts per million | dramatic effect in decreasing the formation of these off-flavor compounds | 7 of 8 panelists preferred | 37 ASBC Formazin Units | 37 ASBC Formazin Units | 32 ASBC Formazin Units | 40 ASBC Formazin Units | 40 ASBC Formazin Units | 35 ASBC Formazin Units | 100 ASBC Formazin Units | 40 ASBC Formazin Units | panelists' preference for treated sample over Aged No Addition sample ([2]; 3 days 40° C.): 6 of 8 panelists preferred; Haze ([3]; Day 21, 40° C., + air): 175 ASBC Formazin Units; Haze ([3]; Day 21, 40° C., no air): 55 ASBC Formazin Units; Haze ([3]; Day 35, 40° C., + air): 800 ASBC Formazin Units; Haze ([3]; Day 35, 40° C., no air): 120 ASBC Formazin Units; effect on rate of haze formation [3]: dramatic positive effect on reducing the rate of haze formation
